# Laboratory results taken from patent US9012458B2, “Antitumor agent using compounds having kinase inhibitory effect in combination” (Eisai R&D Management Co., Ltd., priority 2010, dated 2015).
# Structures can show the parent of a compound that is named as a salt.
# System: human pancreatic cancer cell line (KP-4)
# Test: Combined effect in model animal transplanted with human pancreatic cancer cell line (KP-4)
# Format: in vivo
# Settings: KP-4 s.c. in nude mouse, Compound A 10 mg/kg, Compound B 100 mg/kg, oral once daily, average ± standard deviation
# Experimental: The human pancreatic cancer cell line KP-4 (acquired from National Hospital Organization Kyushu Cancer Center) was cultured using a 10% FBS-containing RPMI 1640 medium (SIGMA) in a 5% CO2 incubator under the condition of 37° C. When the cells reached a state of approximately 80% confluency, the cells were collected using trypsin-EDTA. To these cells, a Hanks' Balanced Salt Solution containing 50% Matrigel was added to prepare a suspension at 5.0×10^7 cells/mL. The cell suspension thus obtained was subcutaneously transplanted at the lateral side of the body of a nude mouse (CAnN.Cg-Foxn1nu/CrlCrlj, Charles River Laboratories Japan, Inc.) in an amount of 0.1 mL, where each group contained six mice. From 11 days after the transplantation, Compound A (10 mg/kg, once daily, for 17 days) and Compound B (100 mg/kg, once daily, for 17 days) were orally administered, either individually or both in a row.
# Setting the initial day of administration at Day 0, the major axis and the minor axis of a tumor developed in each mouse were measured using Digimatic caliper (Mitsutoyo Corporation) thereafter on Day 3, 7, 10, 14, and 17.
# The tumor volume and the relative tumor volume were calculated according to the equations below. TV=major axis (mm)×minor axis^2 (mm^2)/2 RTV=TV on the day of measurement/TV on the initial day of administration
SMILES,RTV (relative tumor volume) Day 3,RTV (relative tumor volume) Day 7,RTV (relative tumor volume) Day 10,RTV (relative tumor volume) Day 14,RTV (relative tumor volume) Day 17
"COc1cc2nccc(Oc3ccc(NC(=O)NC4CC4)c(Cl)c3)c2cc1C(N)=O [Compound A, 4-(3-chloro-4-(cyclopropylaminocarbonyl)aminophenoxy)-7-methoxy-6-quinolinecarboxamide mesylate]",1.67 ± 0.16,2.89 ± 0.74,3.77 ± 1.26,4.83 ± 1.75,5.81 ± 2.17
"CN1CCN(C2CCN(C(=O)Nc3cc(Oc4ccc(NC(=O)C5(C(=O)Nc6ccc(F)cc6)CC5)c(F)c4)ccn3)CC2)CC1 [Compound B, N-(2-fluoro-4-{[2-({[4-(4-methylpiperazin-1-yl)piperidin-1-yl]carbonyl}amino)pyridin-4-yl]oxy}phenyl)-N′-(4-fluorophenyl)cyclopropane-1,1-dicarboxamide tartrate]",1.71 ± 0.26,3.33 ± 1.06,4.72 ± 1.55,6.53 ± 2.19,9.05 ± 3.71
